From patent US10596145B2, “Heterocyclic flavone derivatives, compositions, and methods related thereto” (Emory University, priority 2012, dated 2020)
Entries after “also recorded” stand apart in the source; their conditions may differ.

Experiments:
TrkB [1] = biological target: T1, TrkB (Rattus norvegicus, UniProt Q63604); assay: TrkB activation in primary cortical neurons (immunoblotting); type: cell-based; settings: 500 nM, 15 min
T1 construct: endogenous in cells; host or cells: primary cortical neurons from E17 rat embryos
T1 sequence (Q63604 32-821): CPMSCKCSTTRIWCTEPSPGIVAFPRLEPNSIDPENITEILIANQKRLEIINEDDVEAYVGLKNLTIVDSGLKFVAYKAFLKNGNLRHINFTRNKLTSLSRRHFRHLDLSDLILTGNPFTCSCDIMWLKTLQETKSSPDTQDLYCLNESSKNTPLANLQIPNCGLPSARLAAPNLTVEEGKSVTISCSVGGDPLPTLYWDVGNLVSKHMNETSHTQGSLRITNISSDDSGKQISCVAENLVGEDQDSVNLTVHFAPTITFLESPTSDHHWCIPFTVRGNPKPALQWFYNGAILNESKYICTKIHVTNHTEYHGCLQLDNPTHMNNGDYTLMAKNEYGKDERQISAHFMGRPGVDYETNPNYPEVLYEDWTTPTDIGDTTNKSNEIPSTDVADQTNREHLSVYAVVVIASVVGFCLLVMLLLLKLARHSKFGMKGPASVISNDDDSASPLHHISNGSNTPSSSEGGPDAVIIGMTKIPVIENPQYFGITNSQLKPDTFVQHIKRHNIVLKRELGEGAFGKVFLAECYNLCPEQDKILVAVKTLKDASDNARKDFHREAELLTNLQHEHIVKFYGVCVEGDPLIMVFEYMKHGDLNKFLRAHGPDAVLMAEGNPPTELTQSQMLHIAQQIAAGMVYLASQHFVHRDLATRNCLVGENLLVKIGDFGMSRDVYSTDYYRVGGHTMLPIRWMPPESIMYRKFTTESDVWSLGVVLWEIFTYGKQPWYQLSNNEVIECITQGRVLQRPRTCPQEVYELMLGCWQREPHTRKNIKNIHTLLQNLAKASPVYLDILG
Method: Primary cortical cultures from E17 rat embryos were treated with 500 nM of various synthetic flavone derivatives for 15 min. The cell lysates (20 μg) were analyzed by the immunoblotting.
Rat primary neurons were treated with 500 nM various indicated compounds from 15 min. The neuronal lysates ([…]) were analyzed with various antibodies.
500 nM of different synthetic compounds were added to DIV 7 neurons for 15 min. The cell lysates were analyzed by immunoblotting with indicated p-Akt 473 antibodies.
Replacing the 3′-dimethylamino group or 4′-morpholino group was tested for TrkB agonistic activity. To compare the TrkB activation by these compounds, primary cortical cultures were prepared and treated them with 500 nM of various compounds for 15 min and collected the cell lysates. […] The p-Akt ELISA analysis results were similar to the TrkB activation pattern (FIG. 2B, lower panel).

[2] = In vivo metabolism studies of 7,8-DHF
Source text: Among the modifications, glucuronidation and sulfation are thought to be responsible for the in vivo metabolism of the flavonoids. In addition, the O-methylated metabolites were detected in both the plasma and brain samples after oral administration. These modification pathways may explain the relatively short half-life of 7,8-DHF. Alteration of this labile group into the bioisosteric imidazole derivative escalates the PK profiles in compound o.

[3] = Metabolite investigation of the methylated metabolites of 7,8-DHF
Method: In order to increase the hydrophobicity, EU-B-related compounds were prepared by keeping the urea functional group. In metabolite investigation of the methylated metabolites of 7,8-DHF, it was discovered that that 7-methoxy-8-hydroxy metabolite is active. A methyl group was added on the urea group.

TrkB [4] = biological target: T2, TrkB (Mus musculus, UniProt P15209); assay: TrkB phosphorylation in mouse brain after oral administration (immunoblotting, immunohistochemistry); type: in vivo
T2 construct: from tissue; host or cells: mouse brain (hippocampus, cortex), C57BL/6
T2 sequence (P15209 32-821): as the sequence (Q63604 32-821) above, with M3T, T9S, T10A, I32V, K63R, G84S, T153M, I185L, T394S, N770S counted along it
Method: One mg/kg of various indicated compounds were orally administrated into C57 BL/6J mice and TrkB phosphorylation and its downstream signaling cascades including Akt and MAPK in the hippocampus of mouse brain were analyzed by immunoblotting at 4 h. […] The downstream p-Akt and p-MAPK activity coupled to the TrkB activation patterns.
Time course assay with 4′-dimethylamino-7,8-imidazole flavone. One mg/kg of compound (i) and compound (m) were orally administrated into C57 BL/6J mice and TrkB phosphorylation and its downstream signaling cascades including Akt in mouse brain were analyzed by immunoblotting at various time points. TrkB activation by compound m peaked at 4 h, whereas the maximal TrkB activation by compound i in mouse brain occurred at 1-2 h. Arrows indicate the p-TrkB in mature glycosylated or unglycosylated forms (top panels). The downstream Akt activation pattern tightly correlated with the upstream TrkB activation.
(§1) Male C57BL/6 mice aged of two months were administrated orally with 4′-DMA-7,8-DHF derivatives at a single dose of 1 mg/kg for 4 h. The control mice were injected with saline. The mice were sacrificed and brains were homogenated and ultracentrafuged. The supernatant (40 μg) was employed for SDS-PAGE and immunoblotting analysis with indicated antibodies, respectively. Male C57BL/6 mice aged of two months were administrated orally with compound (i) or (m) at the dose of 5 mg/kg/day each and compound o or p at the dose of 2.5 mg/kg/day each for 21 days. BrdU (100 mg/kg) was i. p. injected two hours before the TrkB agonist treated animals were sacrificed and the hippocampal section lysates were analyzed by immunoblotting with p-TrkB and total TrkB antibodies, p-AKT ELISA.
Brain tissues were fixed in 4% paraformaldehyde overnight followed by paraffin embedding. Sections of 6 μm were cut. For immunohistochemical staining, brain sections were deparaffinized in xylene and rehydrated in graded alcohols. Endogenous peroxidase activity was blocked by 3% hydrogen peroxide for 5 min and all slides were boiled in 10 mM sodium citrate buffer (pH 6.0) for 10 min. Phosphorylated TrkB 816 and TrkB were detected using specific antibodies. Paraffin section were deparaffinized in xylene and rehydrated gradient ethanol solution. Samples were boiled in 10 mM sodium citrate buffer for 20 min for antigen retrieval purpose. Brain sections were incubated with anti-TrkB (BD Biosciences, San Jose, Calif.) 1:50, p-TrkB 1:300 dilution. Secondary antibody was applied using anti-rabbit-Alexa 594 (red), anti-mouse-fluorescein isothiocyanate (FITC) (green). DAPI (blue) was used for nuclear staining.

[5] = In vivo pharmacokinetic studies in mice; set-up: species or system mouse; settings: mice
Method: For compound a, the standard dosage of 1 mg/kg via i.v. injection and 5 mg/kg for P.O. route was employed. […] Presumably, the dosage is too low for the in vivo PK assay. Thus, the doses of the tested compound o were increased. […] Moreover, the bioavailability is around 2% for compound o at a 10 mg/kg dosage.
Twenty to thirty grams mice within the age of 6-8 weeks old were administrated with the indicated compounds i. v. or orally. At different time points (3, 10, 30, 60, 120, 240, 360 and 480 min), blood aliquots (300-400 μl) were collected in tubes coated with lithium heparin, mixed gently, then kept on ice and centrifuged at 2500×g for 15 min at 4° C., within 1 h of collection. The plasma was then harvested and kept frozen at −20° C. until further processing. For each time point, 3 mice/group were employed. The plasma samples were analyzed by HPLC.

Akt = assay: Downstream Akt activation in mouse brain (p-Akt immunoblotting, p-Akt 473 ELISA); type: in vivo
Method: PathScan Phospho-Akt1 (Ser473) Sandwich ELISA kit was purchased from Cell Signaling (Cat. #7160). 100 μl sample in sample diluent (supplied in the kit) was added to each well and incubated overnight at 4° C. After 4× wash with 200 ul wash buffer (supplied in the kit), 100 ul/well detection antibody was added and incubated for 1 hour at 37° C. After 4× wash, 100 μl of HRP-linked secondary antibody (supplied in the kit) was added and incubated for 30 minutes at 37° C. After a final wash, 100 μl of TMB substrate was added to each well and incubated for 10 minutes at 37° C. The reaction was stopped by adding 100 μl/well stop solution. Record the values of each well using microplate reader at 450 nm and 650 nm. The optical density was determined by the subtraction of the reading at 650 nm from the reading s at 450 nm.
as §1

HepG2 cells = assay: In vitro cytotoxicity assay with HepG2 cells; type: cell-based; settings: micronucleus and comet assays
Method: HepG2 cells were treated with various concentrations of flavonoids for 24 h. The drug-treated cells were subjected to trypan blue exclusive assay. Data are presented as mean±SEM. (n=3, ***P<0.0001 vs vehicle).
In vitro and in vivo ADMET (ADME plus toxicity) of certain compounds were examined. […] Micronuclei formation is an important endpoint in genotoxicity study. […] Next, a Comet assay was performed with 100 μM drug-treated HepG2 cells. As a positive control, etoposide, a topoisomerase inhibitor, which causes DNA strand breaks was used.

[6] = Reactive metabolic screening assay; type: in vitro ADME; settings: liver microsomal lysates
Source text: (§2) To explore these compounds' in vitro ADMET profiles, we conducted numerous in vitro assays.

CYP1A2 = biological target: T3, CYP1A2 (Homo sapiens, UniProt P05177); assay: CYP screen inhibition; type: in vitro ADME; settings: at 3 μM
T3 sequence (P05177 1-516): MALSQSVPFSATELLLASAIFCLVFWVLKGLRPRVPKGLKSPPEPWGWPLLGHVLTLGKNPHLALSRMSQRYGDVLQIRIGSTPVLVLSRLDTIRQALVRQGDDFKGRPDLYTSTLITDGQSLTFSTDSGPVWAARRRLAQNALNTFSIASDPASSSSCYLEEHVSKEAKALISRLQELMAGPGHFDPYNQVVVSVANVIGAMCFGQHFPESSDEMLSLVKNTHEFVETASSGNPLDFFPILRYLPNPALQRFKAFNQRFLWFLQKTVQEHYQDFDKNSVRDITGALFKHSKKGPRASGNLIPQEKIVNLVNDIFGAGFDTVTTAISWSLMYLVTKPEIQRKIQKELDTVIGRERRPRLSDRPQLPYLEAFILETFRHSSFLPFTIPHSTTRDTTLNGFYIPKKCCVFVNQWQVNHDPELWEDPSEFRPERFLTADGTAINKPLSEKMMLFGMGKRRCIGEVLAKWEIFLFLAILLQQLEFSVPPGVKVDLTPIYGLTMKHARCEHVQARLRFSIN
Method: At 30 μM, the inhibition patterns contained similar trends. To test the possible cardiovascular toxicity, hERG inhibition triggered by compound o was examined.

C57BL/6J mice [7] = assay: Forced swim test; type: in vivo, mouse; settings: 2.5 mg/kg oral, 21 days
Method: Male C57BL/6J mice (6 mice/group) were orally administrated by gavage with 5 mg/kg compound (m) or compound (i) and vehicle solvent saline for 21 days and subjected to a forced swim test (6 min, immobility recorded in the last 4 min). Data are presented as mean±SEM. (n=6, ***P<0.0001 vs vehicle, Student t-test).
Forced swim test. Male C57BL/6J mice (8 mice/group) were orally administrated by gavage with 2.5 mg/kg compound o or compound p and vehicle solvent saline for 21 days and subjected to a forced swim test (6 min, immobility recorded in the last 4 min). […] Data are presented as mean±SEM.
Adult male mice (2-3 months old) were randomly submitted to a forced swim test without a preswim. Test compounds were orally administrated by gavage for 21 days. The mice were allowed to adapt to the test room for 2 days. The mice were placed in a clear glass cylinder with a diameter of 16 cm, half-filled with clear water at 24° C.

[8] = Human liver microsomal stability assay; type: in vitro ADME; settings: human liver microsomes, 1 h incubation
Source text: as §2

C57BL/6J mice [9] = assay: Locomotor activity assay; type: in vivo, mouse; settings: 2.5 mg/kg oral, 3 weeks
Method: The above drug-treated mice were subjected locomotor activity at day 22. […] Data are presented as mean±SEM.
Locomotor activity was assessed using an automated system (San Diego Instruments, La Jolla, Calif., USA) with photobeams that recorded ambulations (consecutive beam breaks). Drug-treated mice were placed in the locomotor chambers, and their activity was recorded for 2 h with 30 min interval.

For `CN(C)c1cccc(-c2cc(=O)c3ccc(O)c(O)c3o2)c1` [3′-dimethylamino-7,8-DHF], the “TrkB activation (p-TrkB immunoblotting)” value (TrkB [1]) was “comparable activity as compound a”.
For `O=c1cc(-c2ccc(N3CCOCC3)cc2)oc2c(O)c(O)ccc12` [4′-morpholino-7,8-DHF], the “TrkB activation (p-TrkB immunoblotting)” value (TrkB [1]) was “comparable activity as compound a”.
With `O=c1cc(-c2ccccc2)oc2c(O)c(O)ccc12` [7,8-DHF, 7,8-dihdyroxyflavone] the “in vivo metabolic modifications” value [2] was “subjected to oxidation, glucuronidation, sulfation and methylation”.
In the case of `COc1ccc2c(=O)cc(-c3ccccc3)oc2c1O` [7-methoxy-8-hydroxy metabolite], the “activity of methylated metabolite” value [3] is reported as “is active”.
For `CN(C)c1ccc(-c2cc(=O)c3ccc(O)c(O)c3o2)cc1` [compound a, 4′-DMA-7,8-DHF, reference compound], the “TrkB activation in mouse brain” value (TrkB [4]; 1 mg/kg oral, hippocampus, at 4 h) was “activated the TrkB receptor; also recorded: strongest TrkB stimulatory effect”, the AUClast ([5]; 1 mg/kg i.v.) was “about 5930 min*ng/ml” and the “in vivo half-life, t1/2” value ([5]; 1 mg/kg i.v.) was “around 9 min”. The bioavailability ([5]; 5 mg/kg P.O.) was “not measurable” and the “downstream p-Akt and p-MAPK signalings” value (Akt; 1 mg/kg oral, at 4 h) was “strongly activated”.
With `O=c1cc(-c2ccc(N3CCCC3)cc2)oc2c1ccc1nc[nH]c12` [compound n, 8-(4′-(pyrrolidino-)phenyl)chromeno[7,8-d]imidazol-6(1H)-one] the “cytotoxicity or genotoxicity (overall conclusion)” value (HepG2 cells) was “negligible cytotoxicity or genotoxicity”.
With `O=c1cc(-c2ccc(N3CCCC3)cc2)oc2c1ccc1cc[nH]c12` [compound p, 2-(4-(pyrrolidin-1-yl)phenyl)pyrano[3,2-g]indol-4(9H)-one] the “reactive metabolite / adduct formation” value [6] was “formed numerous adducts”, the “TrkB phosphorylation after chronic treatment (immunoblotting)” value (TrkB [4]; 2.5 mg/kg/day oral, 21 days) was “markedly activated TrkB receptor; also recorded: evidently elevated TrkB phosphorylation” and the “TrkB phosphorylation in hippocampus (immunohistochemistry, anti-p-TrkB 816)” value (TrkB [4]; 2.5 mg/kg/day oral, chronic) was “elevated TrkB phosphorylation in hippocampus”. The “Akt activation (quantitative p-Akt ELISA)” value (Akt; 2.5 mg/kg/day oral, 3 weeks) was “notably activated Akt”, the “cytotoxicity or genotoxicity (overall conclusion)” value (HepG2 cells) was “negligible cytotoxicity or genotoxicity” and the CYP1A2 inhibition (CYP1A2) was 37.4%. The “immobility in forced swim test” value (C57BL/6J mice [7]) was “but not compound p significantly decreased the immobility”, the “remaining unchanged after incubation” value [8] was 1.2% and the locomotor activity (C57BL/6J mice [9]) was “neither compound o nor p altered the motion activity”. The “TrkB activation (p-TrkB immunoblotting)” value (TrkB [1]) was “higher activity than compound m”.
